Test [1] relates to Firmicutes, Actinobacteria and Bacteroidetes. Briefly: Agar-dilution antibacterial assay, human gut anaerobic commensals (panel summary). The test is classed as cell-based. The note with it: for antibacterial activity against firmicutes, actinobacteria and bacteroidetes (normal GI flora): summary in words. How it is done:
(§1) Representatives of human gut anaerobic commensals belonging to the 3 major phyla, Firmicutes, Actinobacteria and Bacteroidetes were tested in standard agar-dilution antibacterial assays run under anaerobic conditions. Firmicutes and Actinobacteria are part of the healthy human gut and their levels are compromised in Crohn's patients.

The test system of test [2] is ATCC 15702 Bifidobacterium infantis. In words: Agar-dilution antibacterial assay under anaerobic conditions. The test is classed as cell-based. The note with it: ATCC15702, Actinobacteria. How it is done: as §1
In test [3] the test system is ATCC 25986 Collinsella aerofaciens. The test is described as above. The note with it: ATCC25986, Actinobacteria. The test is classed as cell-based. As for the experimental part:
as §1

The subject of test [4] is ATCC 23272 Lactobacillus reuteri. The description is as above. The format is cell-based. The note with it: Limosilactobacillus reuteri, ATCC23272, Firmicutes. As for the experimental part: as §1
For test [5], the system named is MMX 1722 Lactobacillus casei. Described as above. The format is cell-based. The following applies: Lacticaseibacillus casei, Firmicutes. As for the experimental part:
as §1

The subject of test [6] is MMX 9797 Clostridium innocuum. The test is described as above. The test is classed as cell-based. The following applies: Firmicutes. As for the experimental part:
as §1

Test [7] has as its system MMX 6660 Streptococcus intermedius. The test is described as above. The test is classed as cell-based. The following applies: Firmicutes. How it is done:
as §1

The test system of test [8] is MMX 10069 Bifidobacterium adolescentis. The description is as above. The format is cell-based. The note with it: Actinobacteria. How it is done: as §1
The test system of test [9] is MMX 3478 Bacteroides fragilis. Described as above. The note with it: Bacteroidetes. The test is classed as cell-based. As for the experimental part: as §1
Test [10] relates to MMX 9711 Bacteroides salyersiae. The description is as above. The test is classed as cell-based. The following applies: Bacteroidetes. How it is done:
as §1

The test system of test [11] is ATCC 12290 Bacteroides thetaiotaomicron. Briefly: microbe, parasite or virus in culture. The test is classed as cell-based. How it is done: as §1
Test [12] concerns AIEC strain (Phylotype D). Briefly: GI AIEC decolonization murine model. The test is classed as in vivo, C57BL/6J mice. The note with it: 30 mg/kg by oral gavage, FIG. 1. How it is done:
A GI AIEC decolonization murine model studies were performed using a previously published murine model as the basis and run in accordance with animal ethical guidelines at an external contract research organization. Healthy C57BL/6J mice were first administered streptomycin by oral gavage. An AIEC strain (Phylotype D) was then administered at approximately 1-5×10^6 cfu per mouse by oral gavage and fecal pellets were enumerated for AIEC burden. Upon stable colonization (usually after 48 h post-AIEC administration), mice were sorted into three groups of 4 animals each. […] The third group was the control and was given an equivalent volume of sterile saline by oral gavage. Fecal pellets were recovered at various times as indicated on the X-axis of FIG. 1 and AIEC burden quantified by dilution and plating. Two successive fecal pellets were recovered from each mouse per group to sufficiently power the data.

The subject of test [13] is Crohn's AIEC Isolates. The following applies: AIEC Crohn's clinical isolates.
Test [14] concerns Crohn's AIEC Isolates. In words: microbe, parasite or virus in culture. The note with it: Escherichia coli.
A further test relates to gut microbiome. Briefly: Post-treatment measurement of microbiome health (16S rRNA gene sequencing of fecal pellets). The format is in vivo, mice. The note with it: 30 mg/kg oral gavage once a day for 3 days, p<0.05. As for the experimental part:
Mice were dosed once a day for 3 consecutive days post AIEC stable GI colonization. Fecal pellets from four mice (1-2 per mouse) were pooled and subjected to bacterial DNA enrichment and analyzed using the Illumina MiSeq 2. Bacterial abundance and diversity was quantified using 16S rRNA gene sequencing data, analyzed and compared with naïve mice.

[15] abbreviates: ATCC12290, Bacteroidetes, anaerobic agar dilution, read-out: MIC.

SMILES strings stand for the structures. ≈ marks a conversion by molar mass, not a printed value. Like-named read-outs stand apart in the source and are kept apart here.

Consider `Cc1ncc([N+](=O)[O-])n1CCO` [Metronidazole], for which the “antibacterial activity against firmicutes, actinobacteria and bacteroidetes (normal GI flora)” value (from here on “antibacterial activity … (normal GI flora)”) in [1] is listed as “broad potent antibacterial activities”. Besides, the MIC in test [2] was 8 µg/mL (≈ 46.7 µM); in test [3], 1 µg/mL (≈ 5.84 µM); in test [4] it was more than 64 µg/mL; in test [5], more than 64 µg/mL; in test [6] it was 1 µg/mL (≈ 5.84 µM); in test [7], more than 64 µg/mL. Besides, the MIC in test [8] was found to be 8 µg/mL (≈ 46.7 µM); in [9] it was 8 µg/mL (≈ 46.7 µM); in test [10], 2 µg/mL (≈ 11.7 µM); in test [11] (ATCC12290) it was 0.25 µg/mL (≈ 1.46 µM).

In the case of `CO[C@@]1(NC(=O)C(C(=O)O)c2ccsc2)C(=O)N2[C@@H](C(=O)O)C(C)(C)S[C@@H]21` (stereo partly drawn) [Temocillin, temocillin], the MIC in test [1] (certain firmicutes, actinobacteria and bacteroidetes) is more than 256 µg/mL; in [2], more than 256 µg/mL; in [3], more than 256 µg/mL; in test [4], more than 256 µg/mL; in test [5], more than 256 µg/mL; in [6], more than 256 µg/mL. The MIC in [7] is more than 256 µg/mL; in test [8] it was more than 256 µg/mL; in [9], 256 µg/mL (≈ 618 µM); in [10] it was more than 256 µg/mL; in test [11] (setting [15]), more than 256 µg/mL; against Crohn's AIEC Isolates [14] (Crohn's AIEC isolate #14), 16 µg/mL (≈ 38.6 µM). The MIC with Crohn's AIEC Isolates [14] (Crohn's AIEC isolate #32) turned out to be 4 µg/mL (≈ 9.65 µM); against Crohn's AIEC Isolates [14] (Crohn's AIEC isolate #35), 16 µg/mL (≈ 38.6 µM); against Crohn's AIEC Isolates [14] (Crohn's AIEC isolate #40), 8 µg/mL (≈ 19.3 µM); in the test with Crohn's AIEC Isolates [14] (Crohn's AIEC isolate #49), 4 µg/mL (≈ 9.65 µM); in the test on Crohn's AIEC Isolates [14] (Crohn's AIEC isolate #51) it was 8 µg/mL (≈ 19.3 µM). The “antibacterial activity … (normal GI flora)” value in [1] was “little or no effect on the normal GI flora”. The “AIEC burden in feces (log10 bacterial burden)” value in [12] was “effective at lowering AIEC burden in the murine GI tract and performed as well as the current standard-of-care antibiotic, ciprofloxacin”; in test [12] (listed as temocillin), “effective at lowering the AIEC burden in the murine GI tract”. The “AIEC burden after cessation of treatment (rebound)” value in [12] (post-treatment) is “effective at maintaining the AIEC burden low for days after cessation of treatment”. Moreover, the “time AIEC bacterial growth remained low after treatment” value in test [12] (post-treatment) is “at least 7 days”. In the test on Crohn's AIEC Isolates [13], the “antibacterial activity vs. ciprofloxacin resistant isolates” value is listed as “maintains antibacterial activity vs. ciprofloxacin resistant isolates”. Moreover, the MIC50 in the test with Crohn's AIEC Isolates [14] fell in the range of 4 to 8 µg/mL (≈ 9.65 to 19.3 µM). Also, the “richness (number of OTUs)” value in the test on gut microbiome (FIG. 2A) is “comparable to the untreated (naive) mice and were higher than ciprofloxacin”. Moreover, in the test with gut microbiome (FIG. 2B), the “diversity (Shannon index)” value was “comparable to the untreated (naive) mice and were higher than ciprofloxacin”.

Consider `CO[C@H]1/C=C/O[C@@]2(C)Oc3c(C)c(O)c4c(O)c(c5c(nc6cc(C)ccn65)c4c3C2=O)NC(=O)/C(C)=C\C=C\[C@H](C)[C@H](O)[C@@H](C)[C@@H](O)[C@@H](C)[C@H](OC(C)=O)[C@@H]1C` [Rifaximin], for which, in test [1], the “antibacterial activity … (normal GI flora)” value is “broad potent antibacterial activities”. Also, the MIC in [2] is 0.125 µg/mL (≈ 0.159 µM); in test [3] it was not above 0.03 µg/mL; in test [4] it was 0.06 µg/mL (≈ 0.0763 µM); in test [5] it was 0.25 µg/mL (≈ 0.318 µM); in test [6], more than 32 µg/mL; in test [7], 0.5 µg/mL (≈ 0.636 µM). The MIC in test [8] is 0.5 µg/mL (≈ 0.636 µM); in test [9], 0.25 µg/mL (≈ 0.318 µM); in test [10] it was 0.5 µg/mL (≈ 0.636 µM); in test [11] (setting [15]), not above 0.03 µg/mL.

Regarding `O=C(O)c1cn(C2CC2)c2cc(N3CCNCC3)c(F)cc2c1=O` [Ciprofloxacin], the “antibacterial activity … (normal GI flora)” value in [1] is recorded as “broad potent antibacterial activities”. Further, the MIC came out at 4 µg/mL (≈ 12.1 µM) in test [2]; 0.5 µg/mL (≈ 1.51 µM) in test [3]; 32 µg/mL (≈ 96.6 µM) in test [4]; 1 µg/mL (≈ 3.02 µM) in test [5]; 1 µg/mL (≈ 3.02 µM) in test [7]; 32 µg/mL (≈ 96.6 µM) in [8]. Besides, the MIC in test [9] and in [10] was 16 µg/mL (≈ 48.3 µM) in each case.
